Here are results for 24 compounds from patent publication US8987314B2, “Amide, urea or sulfone amide linked benzothiazole inhibitors of endothelial lipase” (Bristol-Myers Squibb Company, priority 2012, dated 2015).

Read-outs that look alike come from different tables or passages of the source. A value given as a limit tells only on which side of the number the result lay.

For assay [1], the target named is Endothelial lipase (EL) (Homo sapiens (Human), UniProt Q9Y5X9). Put plainly: EL assay: endothelial lipase activity with fluorescent substrate A10070 in DMPG vesicles. Type of assay: biochemical. How it is done:
(§1) Endothelial lipase (EL) and hepatic lipase (HL) activities were measured using a fluorescent substrate, A10070, (Invitrogen, CA) doped into an artificial vesicle containing DMPG (Avanti Polar Lipids) as the excipient. Vesicles were prepared by combining 571 μL of 29 mM DMPG in a 1:1 mixture of MeOH and CHCl3 with 2000 μL of 1 mM A10070 in a 1:1 mixture of MeOH and CHCl3. The mixture was dried under nitrogen in multiple vials then resuspended in 20 mL total volume of 50 mM HEPES pH 8.0 buffer containing 50 mM NaCl and 0.2 mM EDTA. The sample was allowed to sit at room temperature for 15 min and then was sonicated 3×4 mins on ice with a Branson Sonicator using duty cycle 1. This preparation provides vesicles with a mole fraction of 0.11 for the FRET substrate.
(§2) The enzymatic assay was measured using 384-well white Optiplates. Each well contained 20 μL of assay buffer (50 mM HEPES pH 8.0, 50 mM NaCl and 1 mM CaCl2) and 0.25 μL of a DMSO solution containing a compound of interest. EL or HL (10 μL) was added and allowed to incubate with the compound for 30 min at 37° C. The source of EL was conditioned media obtained from HT-1080 cells that were transformed using RAGE technology (Athersys) to overexpress endogenous EL, and HL was partially purified from conditioned media obtained from COS cells overexpressing HL. The reaction was started by the addition of 10 μL of a 1:10 dilution of vesicles. The final total reaction volume was […]. The reaction rates were measured on a Gemini plate reader with an excitation wavelength of 490 nm and an emission wavelength of 530 nm. Readings were taken over a period of 60 minutes, and the slope between 300 and 900 secs of the readout was used to calculate the rate of the reaction.

The target of assay [2] is hepatic lipase (HL) (Homo sapiens (Human), UniProt P11150). Put plainly: HL assay: hepatic lipase activity with fluorescent substrate A10070 in DMPG vesicles. It is filed as biochemical. As for the experimental part:
as §1, §2

[3] abbreviates: EL from conditioned media of HT-1080 cells, 30 min incubation with compound at 37° C., A10070/DMPG vesicles.
The mark [4] stands for this setting: HL partially purified from conditioned media of COS cells, 30 min incubation with compound at 37° C., A10070/DMPG vesicles.

Chain of hepatic lipase (HL) (P11150 23-499, species assumed): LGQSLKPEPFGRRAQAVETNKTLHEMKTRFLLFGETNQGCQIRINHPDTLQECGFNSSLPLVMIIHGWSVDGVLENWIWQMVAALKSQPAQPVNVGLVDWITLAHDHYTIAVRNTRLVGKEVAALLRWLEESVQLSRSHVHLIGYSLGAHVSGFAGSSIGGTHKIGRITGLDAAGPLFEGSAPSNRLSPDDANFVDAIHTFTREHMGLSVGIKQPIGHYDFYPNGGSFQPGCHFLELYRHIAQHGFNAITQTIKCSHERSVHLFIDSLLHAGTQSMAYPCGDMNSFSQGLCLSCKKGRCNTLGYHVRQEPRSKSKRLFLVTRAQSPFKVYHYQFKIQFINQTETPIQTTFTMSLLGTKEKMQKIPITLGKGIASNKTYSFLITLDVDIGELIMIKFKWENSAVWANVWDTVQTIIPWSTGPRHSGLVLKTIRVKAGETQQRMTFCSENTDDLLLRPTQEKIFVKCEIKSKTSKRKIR
Chain of Endothelial lipase (EL) (Q9Y5X9 21-500): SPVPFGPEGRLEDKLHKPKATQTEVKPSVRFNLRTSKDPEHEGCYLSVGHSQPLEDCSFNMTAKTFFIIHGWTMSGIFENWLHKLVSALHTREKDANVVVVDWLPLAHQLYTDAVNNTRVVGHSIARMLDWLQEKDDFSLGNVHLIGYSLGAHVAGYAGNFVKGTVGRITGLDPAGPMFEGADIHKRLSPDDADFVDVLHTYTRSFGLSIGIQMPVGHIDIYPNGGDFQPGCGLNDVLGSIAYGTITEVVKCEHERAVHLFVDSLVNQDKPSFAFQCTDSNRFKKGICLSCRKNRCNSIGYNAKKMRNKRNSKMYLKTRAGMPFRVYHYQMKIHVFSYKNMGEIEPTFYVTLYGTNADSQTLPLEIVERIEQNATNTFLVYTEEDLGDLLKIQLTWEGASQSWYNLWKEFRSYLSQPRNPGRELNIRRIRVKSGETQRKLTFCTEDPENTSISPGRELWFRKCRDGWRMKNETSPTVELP

In general, IC50 refers to the concentration at which inhibition is half-maximal. With `COC(C)(C)CNC(=O)c1ccc(-c2ccc3nc(C(C(=O)NCCS(N)(=O)=O)S(=O)(=O)CC4CC4)sc3c2)cc1` (stereo not shown) [Example B244, 4-(2-{cyclopropylmethane-sulfonyl[(2-sulfamoyl-ethyl)carbamoyl]methyl}-1,3-benzothiazol-6-yl)-N-(2-methoxy-2-methyl-propyl)benzamide], the IC50 in assay [1] was determined as 0.9 nM; in assay [2], 12 nM.
`COCCS(=O)(=O)C(C(=O)NCc1nnc(C)o1)c1nc2ccc(-c3ccccc3)cc2s1` (stereo not shown) [Example B204, 2-(2-methoxyethane-sulfonyl)-N-[(5-methyl-1,3,4-oxadiazol-2-yl)methyl]-2-(6-phenyl-1,3-benzothiazol-2-yl)a-cetamide]: the IC50 is 23.7 nM in assay [1] and 17.5 nM in assay [2].
On to `CS(=O)(=O)C(C(=O)NCCS(N)(=O)=O)c1nc2ccc(-c3ccc(C#N)cc3)cc2s1` (stereo not shown) [Example B50, 2-(6-(4-cyanophenyl)-1,3-benzothiazol-2-yl)-2-(methylsulfonyl)-N-(2-Sulfamoylethyl)acetamide], for which the IC50 is below 10 nM in assay [1] and 14 nM in assay [2].
With `COCCS(=O)(=O)C(C(=O)NCCS(N)(=O)=O)c1nc2ccc(-c3ccnc(O)c3)cc2s1` (stereo not shown) [Example B190, 2-((2-methoxyethyl)sul-fonyl)-2-(6-(2-oxo-1,2-dihydro-4-pyridinyl)-1,3-benzothiazol-2-yl)-N-(2-sulfamoylethyl)acetamide], the IC50 in assay [1] is below 10 nM; in assay [2] it was 272 nM.
On the same counts, the results for `COCCn1ccc(-c2ccc3nc(C(C(=O)NCCS(N)(=O)=O)S(=O)(=O)Cc4ccc(C(F)(F)F)cc4)sc3c2)cc1=O` (stereo not shown) [Example B367, 2-{6-[1-(2-methoxyethyl)-2-oxo-1,2-dihydropyridin-4-yl]-1,3-benzothiazol-2-yl}-N-(2-sulfamoylethyl)-2-{[4-(trifluoromethyl)phen-yl]methanesulfonyl}a-cetamide] are 13.5 nM and 2210 nM.
For `COCCNC(=O)c1ccc(-c2ccc3nc(C(C(=O)NCCS(N)(=O)=O)S(=O)(=O)Cc4cccc(C#N)c4)sc3c2)cc1` (stereo not shown) [Example B115] the same measures were 1.2 nM and 107 nM.
For the compound `Cc1cc2nc(C(C(=O)NCCS(N)(=O)=O)S(C)(=O)=O)sc2cc1-c1cnn(C)c1` (stereo not shown) [Example B203, 2-(5-methyl-6-(1-methyl-1H-pyrazol-4-yl)-1,3-benzothiazol-2-yl)-2-(methylsulfonyl)-N-(2-sulfamoylethyl)acetamide], the IC50 came out at 10 nM in assay [1] (setting [3]) and 141 nM in assay [2] (setting [4]).
For `NS(=O)(=O)CCNC(=O)C(c1nc2ccc(-c3ccc(C(=O)NC4CC4)cc3)cc2s1)S(=O)(=O)Cc1ccc(OC(F)(F)F)cc1` (stereo not shown) [Example B226, N-cyclopropyl-4-(2-{[(2-sulfamoylethyl)carbamoyl][4-(trifluoromethoxy)phen-yl]methanesulfonyl-methyl}-1,3-benzothiazol-6-yl)benzamide], the IC50 is 0.5 nM in assay [1] and 74 nM in assay [2].
For `COCCS(=O)(=O)C(C(=O)NCCS(N)(=O)=O)c1nc2ccc(-c3ccc(C(=O)N4CC(F)(F)C4)cc3)cc2s1` (stereo not shown) [Example B167, 2-(6-(4-((3,3-difluoro-1-azetidinyl)carbonyl)phen-yl)-1,3-benzothiazol-2-yl)-2-((2-methoxyethyl)sul-fonyl)-N-(2-sulfamoylethyl)acetamide] the same measures were below 10 nM and 79 nM.
With `CCNC(=O)CNC(=O)C(c1nc2ccc(-c3ccc(F)nc3)cc2s1)S(=O)(=O)CCOC` (stereo not shown) [Example B397, N-[(ethylcarbamoyl)methyl]-2-[6-(6-fluoropyridin-3-yl)-1,3-benzothiazol-2-yl]-2-(2-methoxyethanesulfonyl)acetamide], the IC50 amounted to 109 nM in assay [1] (setting [3]) and 460 nM in assay [2] (setting [4]).
With `C[C@H]1CN(C(=O)c2ccc(-c3ccc4nc(C(C(=O)NCCS(N)(=O)=O)S(=O)(=O)CC5CC5)sc4c3)cc2)CCO1` (stereo partly drawn) [Example B251, 2-cyclopropylmethane-sulfonyl-2-(6-{4-[(2S)-2-methylmorpholine-4-carbonyl]phenyl}-1,3-benzothiazol-2-yl)-N-(2-sulfamoylethyl)acetamide], the IC50 was 2.6 nM in assay [1] and 363 nM in assay [2].
For `CS(=O)(=O)C(C(=O)NCCS(N)(=O)=O)c1nc2cc(-c3ccc(O)nc3)ccc2s1` (stereo not shown) [Example B195, 2-(methylsulfonyl)-2-(5-(6-oxo-1,6-dihydro-3-pyridinyl)-1,3-benzothiazol-2-yl)-N-(2-sulfamoylethyl)acetamide] the same measures were 1 nM and 105 nM.
For `CS(=O)(=O)C(C(=O)NCCS(N)(=O)=O)c1nc2ccc(-c3cc(F)cc(Cl)c3)cc2s1` (stereo not shown) [Example B209, 2-[6-(3-chloro-5-fluorophenyl)-1,3-benzothiazol-2-yl]-2-methanesulfonyl-N-(2-sulfamoylethyl)acetamide] the same measures were 8 nM and 13.9 nM.
On the same counts, the results for `NS(=O)(=O)CCNC(=O)C(c1nc2ccc(-c3ccc(C(=O)N4CCOCC4)cc3)cc2s1)S(=O)(=O)Cc1ccc(Cl)c(Cl)c1` (stereo not shown) [Example B297, 2-[(3,4-dichlorophen-yl)methanesulfonyl]-2-{6-[4-(morpholine-4-carbon-yl)phenyl]-1,3-benzothiazol-2-yl}-N-(2-sulfamoylethyl)a-cetamide] are 5.3 nM and 556 nM.
Consider `CS(=O)(=O)C(C(=O)NCCS(N)(=O)=O)c1nc2cc(-c3cncnc3)ccc2s1` (stereo not shown) [Example B89, 2-(methylsulfonyl)-2-(5-(5-pyrimidinyl)-1,3-benzothiazol-2-yl)-N-(2-sulfamoylethyl)acetamide], for which the values for the IC50 in assay [1] and in assay [2] were 4.4 nM and 70 nM, respectively.
On the same counts, the results for `COCCNC(=O)c1ccc(-c2cc3sc(C(C(=O)NCc4nnc(C)o4)S(C)(=O)=O)nc3cc2F)cc1` (stereo not shown) [Example B266, 4-{5-fluoro-2-[methanesulfonyl({[(5-methyl-1,3,4-oxadiazol-2-yl)methyl]carbamoyl})meth-yl]-1,3-benzothiazol-6-yl}-N-(2-methoxyethyl)ben-zamide] are 39.1 nM and 948 nM.
For `NS(=O)(=O)CCNC(=O)C(NC(=O)C(F)F)c1nc2ccc(-c3ccc(F)nc3)cc2s1` (stereo not shown) [Example A4, 2-(2,2-difluoroacetamido)-2-(6-(6-fluoropyridin-3-yl)benzo[d]thiazol-2-yl)-N-(2-sulfamoylethyl)acetamide], the IC50 in assay [1] (setting [3]) was below 10 nM.
Still for that read-out and setting: the same measure for `NS(=O)(=O)CCNC(=O)C(c1nc2ccc(-c3ccc(F)nc3)cc2s1)S(=O)(=O)Cc1ccc(C(F)(F)F)cc1` (stereo not shown) [Example B6, 2-(6-(6-fluoro-3-pyridinyl)-1,3-benzothiazol-2-yl)-N-(2-sulfamoylethyl)-2-((4-(trifluoromethyl)benzyl)sulfonyl)acetamide]: below 10 nM; for `NS(=O)(=O)CCNC(=O)C(c1nc2ccc(-c3ccc(F)nc3)cc2s1)S(=O)(=O)CCC(F)(F)F` (stereo not shown) [Example B7, 2-(6-(6-fluoropyridin-3-yl)benzo[d]thiazol-2-yl)-N-(2-sulfamoylethyl)-2-((3,3,3-trifluoropropyl)sulfonyl)acetamide]: below 10 nM; for `CC(C)c1cc(CNC(=O)C(C)(C)c2nc3ccc(-c4ccccc4)cc3s2)on1` [Reference 2, N-((3-isopropylisoxazol-5-yl)methyl)-2-methyl-2-(6-phenylbenzo[d]thiazol-2-yl)propanamide, reference compound]: above 62000 nM.
Still for that read-out and setting: the same measure for `COC(=O)Nc1ccc(-c2ccc3nc(C(C(=O)NCCS(N)(=O)=O)S(C)(=O)=O)sc3c2)cc1` (stereo not shown) [Example B22, methyl (4-(2-(1-(methylsulfonyl)-2-oxo-2-((2-sulfamoylethyl)amino)ethyl)-1,3-benzothiazol-6-yl)phenyl)carbamate]: below 10 nM.
Still for that read-out and setting: with `NS(=O)(=O)CCNC(=O)C(c1nc2ccc(-c3ccc(F)nc3)cc2s1)S(=O)(=O)Cc1ccccc1` (stereo not shown) [Example B5, 2-(benzylsulfonyl)-2-(6-(6-fluoro-3-pyridinyl)-1,3-benzothiazol-2-yl)-N-(2-sulfamoylethyl)acetamide] the figure was below 10 nM; with `C=CCS(=O)(=O)C(C(=O)NCCS(N)(=O)=O)c1nc2ccc(-c3ccccc3)cc2s1` (stereo not shown) [Example B2, 2-(Allylsulfonyl)-2-(6-phenylbenzo[d]thiazol-2-yl)-N-(2-sulfamoylethyl)acetamide], below 10 nM.
As to `C=CCC(C(=O)NCCS(N)(=O)=O)c1nc2ccc(-c3ccccc3)cc2s1` (stereo not shown) [Reference 1, 2-(6-Phenyl-1,3-benzothiazol-2-yl)-N-(2-sulfamoylethyl)-4-pentenamide, reference compound], in assay [1], the IC50 worked out at 9400 nM.
